Reference: the supplement of paper PMC10307832

Key:
Assay in all cases: relative viability (nuclei count vs DMSO), 5 days (fraction); higher = more cells survive
Venetoclax + Phenformin = compound: CC1(C)CCC(CN2CCN(c3ccc(C(=O)NS(=O)(=O)c4ccc(NCC5CCOCC5)c([N+](=O)[O-])c4)c(Oc4cnc5[nH]ccc5c4)c3)CC2)=C(c2ccc(Cl)cc2)C1 [Venetoclax] + N=C(N)NC(=N)NCCc1ccccc1 [Phenformin] (partner 250 µM)
In short: (§1)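 Relative viability divides the nuclei count in treated wells by that in vehicle wells. Lung cancer cell lines were seeded in 1536-well plates, dosed by pin tool the next day, and fixed and stained after 5 days in one step with final 0.05% Triton X-100, 1% formaldehyde and 1 ug/ml Hoechst. Dosing was a single drug or a fixed anchor-drug dose plus five library-drug doses (not always all listed) in √10 steps, and values are medians of duplicate plates imaged at 4×.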

Selumetinib + Trametinib = compound: Cn1cnc2c(F)c(Nc3ccc(Br)cc3Cl)c(C(=O)NOCCO)cc21 [Selumetinib] + CC(=O)Nc1cccc(-n2c(=O)n(C3CC3)c(=O)c3c(Nc4ccc(I)cc4F)n(C)c(=O)c(C)c32)c1 [Trametinib] (partner 0.02 µM)
In short: as §1

Selumetinib + Pictilisib = compound: Cn1cnc2c(F)c(Nc3ccc(Br)cc3Cl)c(C(=O)NOCCO)cc21 [Selumetinib] + CS(=O)(=O)N1CCN(Cc2cc3nc(-c4cccc5[nH]ncc45)nc(N4CCOCC4)c3s2)CC1 [Pictilisib] (partner 1 µM)
In short: as §1

Selumetinib + Vorinostat = compound: Cn1cnc2c(F)c(Nc3ccc(Br)cc3Cl)c(C(=O)NOCCO)cc21 [Selumetinib] + O=C(CCCCCCC(=O)Nc1ccccc1)NO [Vorinostat] (partner 1 µM)
In short: as §1

| Cell Line | relative viability (Venetoclax + Phenformin; first compound 0.01 µM) | relative viability (Venetoclax + Phenformin; first compound 0.03162 µM) | relative viability (Venetoclax + Phenformin; first compound 0.1 µM) | relative viability (Venetoclax + Phenformin; first compound 0.3162 µM) | relative viability (Venetoclax + Phenformin; first compound 1 µM) | relative viability (Selumetinib + Trametinib; first compound 0.02 µM) | relative viability (Selumetinib + Trametinib; first compound 0.06325 µM) | relative viability (Selumetinib + Trametinib; first compound 0.2 µM) | relative viability (Selumetinib + Trametinib; first compound 0.6325 µM) | relative viability (Selumetinib + Pictilisib; first compound 0.02 µM) | relative viability (Selumetinib + Pictilisib; first compound 0.06325 µM) | relative viability (Selumetinib + Pictilisib; first compound 0.2 µM) | relative viability (Selumetinib + Pictilisib; first compound 0.6325 µM) | relative viability (Selumetinib + Vorinostat; first compound 0.02 µM) | relative viability (Selumetinib + Vorinostat; first compound 0.06325 µM) | relative viability (Selumetinib + Vorinostat; first compound 0.2 µM) | relative viability (Selumetinib + Vorinostat; first compound 0.6325 µM) |
| --- | --- | --- | --- | --- | --- | --- | --- | --- | --- | --- | --- | --- | --- | --- | --- | --- | --- |
| NCI-H650 | 0.439 | 0.487 | 0.438 | 0.488 | 0.435 | 0.963 | 1.03 | 0.979 | 0.866 | 1 | 0.912 | 0.887 | 0.993 | 0.552 | 0.778 | 0.72 | 0.805 |
| A-427 | 0.292 | 0.322 | 0.31 | 0.348 | 0.259 | 0.731 | 0.781 | 0.812 | 0.794 | 0.752 | 0.583 | 0.493 | 0.421 | 0.93 | 0.94 | 0.976 | 0.878 |
| EMC-BAC-2 | 0.483 | 0.524 | 0.519 | 0.512 | 0.475 | 0.909 | 0.833 | 0.937 | 0.774 | 0.556 | 0.53 | 0.523 | 0.492 | 0.928 | 0.682 | 0.607 | 0.865 |
| NCI-H520 | 0.477 | 0.507 | 0.554 | 0.566 | 0.519 | 0.826 | 0.677 | 0.749 | 0.776 | 0.293 | 0.24 | 0.31 | 0.292 | 0.774 | 0.73 | 0.785 | 0.71 |
| LOU-NH91 | 0.641 | 0.784 | 0.615 | 0.742 | 0.698 | 0.773 | 0.761 | 0.818 | 0.824 | 0.503 | 0.496 | 0.523 | 0.539 | 0.889 | 0.88 | 0.843 | 0.874 |
| HOP-62 | 0.622 | 0.655 | 0.67 | 0.649 | 0.64 | 0.372 | 0.358 | 0.404 | 0.332 | 0.713 | 0.407 | 0.26 | 0.261 | 0.579 | 0.556 | 0.555 | 0.349 |
| NCI-H1563 | 0.728 | 0.649 | 0.662 | 0.701 | 0.659 |  |  |  |  | 0.616 | 0.587 | 0.753 | 0.638 |  |  |  |  |
| NCI-H1792 | 0.263 | 0.258 |  | 0.254 | 0.246 | 0.439 | 0.521 | 0.452 | 0.402 | 0.238 | 0.197 | 0.196 | 0.144 |  |  |  |  |
| HCC-15 | 0.451 | 0.48 | 0.455 | 0.448 | 0.406 | 0.403 | 0.426 | 0.332 | 0.333 | 0.509 | 0.31 | 0.25 | 0.207 | 0.656 | 0.586 | 0.435 | 0.393 |
| HCC-366 | 0.553 | 0.613 | 0.578 | 0.574 | 0.545 | 0.365 | 0.316 | 0.332 | 0.329 | 0.136 | 0.0735 | 0.124 | 0.115 | 0.335 | 0.41 | 0.344 | 0.445 |
| LU99A | 0.852 | 0.92 | 0.799 | 0.878 | 0.822 | 0.505 | 0.649 | 0.512 | 0.481 | 0.34 | 0.317 | 0.412 | 0.351 | 0.521 | 0.472 | 0.476 | 0.501 |
| SW 1573 | 0.425 | 0.373 | 0.327 | 0.47 | 0.392 | 0.599 | 0.56 | 0.522 | 0.545 | 0.366 | 0.427 | 0.342 | 0.386 | 0.652 | 0.582 | 0.703 | 0.914 |
| NCI-H1703 |  |  |  |  |  |  |  |  |  | 0.231 | 0.193 | 0.229 | 0.283 |  |  |  |  |
| NCI-H2170 | 0.319 | 0.415 | 0.399 | 0.368 | 0.34 | 0.934 | 0.957 | 0.853 | 0.921 | 0.27 | 0.306 | 0.276 | 0.249 | 0.905 | 0.74 | 0.705 | 0.786 |
| NCI-H2087 | 0.461 | 0.471 | 0.387 | 0.407 | 0.461 | 0.19 | 0.171 | 0.231 | 0.204 | 0.552 | 0.405 | 0.329 | 0.267 | 0.582 | 0.258 | 0.514 | 0.445 |
| LCLC-103H | 0.335 | 0.298 | 0.352 | 0.313 | 0.333 | 0.635 | 0.707 | 0.66 | 0.672 | 0.551 | 0.655 | 0.545 | 0.53 | 0.811 | 0.768 | 0.712 | 0.691 |
| NCI-H1755 | 0.645 | 0.616 | 0.573 | 0.629 | 0.555 | 0.78 | 0.753 | 0.778 | 0.752 | 0.446 | 0.426 | 0.342 | 0.365 | 0.821 | 0.68 | 0.726 | 0.852 |
